Assay results published in ChEMBL document CHEMBL5465560, “Selectivity Literature for EUbOPEN Chemogenomic Library” (2024).

Assays:
[1] = target: STE20-like serine/threonine-protein kinase (Homo sapiens, UniProt Q9H2G2); conditions: at 10 µM
[2] = target: T1, Serine/threonine-protein kinase MAK (Homo sapiens) (UniProt P20794); assay: Selectivity interaction (KinomeScan (DiscoverX)) EUB0000092b MAK; conditions: at 10 µM
T1 sequence (whole entry): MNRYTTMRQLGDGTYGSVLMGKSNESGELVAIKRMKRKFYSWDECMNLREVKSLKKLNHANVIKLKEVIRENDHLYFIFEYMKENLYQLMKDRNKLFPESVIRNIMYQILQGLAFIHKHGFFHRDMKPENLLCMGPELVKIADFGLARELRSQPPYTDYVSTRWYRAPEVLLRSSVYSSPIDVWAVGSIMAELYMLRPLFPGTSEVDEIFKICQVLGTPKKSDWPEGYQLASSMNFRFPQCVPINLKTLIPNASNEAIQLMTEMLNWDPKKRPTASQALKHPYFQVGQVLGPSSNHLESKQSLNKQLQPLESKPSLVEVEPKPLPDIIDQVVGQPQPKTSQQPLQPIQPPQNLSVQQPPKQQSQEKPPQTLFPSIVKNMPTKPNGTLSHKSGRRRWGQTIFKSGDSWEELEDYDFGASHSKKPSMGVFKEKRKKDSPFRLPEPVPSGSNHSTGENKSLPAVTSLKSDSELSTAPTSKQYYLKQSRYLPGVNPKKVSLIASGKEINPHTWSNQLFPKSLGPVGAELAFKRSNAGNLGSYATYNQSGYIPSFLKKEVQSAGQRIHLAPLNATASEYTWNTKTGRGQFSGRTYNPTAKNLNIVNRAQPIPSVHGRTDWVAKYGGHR

[3] = target: Protein kinase C delta type (Homo sapiens) (UniProt Q05655); assay: Selectivity interaction (KinomeScan (DiscoverX)) EUB0001079a PRKCD; conditions: at 1 µM
[4] = target: T2, NUAK family SNF1-like kinase 1 (Homo sapiens) (UniProt O60285); assay: Selectivity interaction (KinomeScan (DiscoverX)) EUB0000666a NUAK1; conditions: at 10 µM
T2 sequence (whole entry): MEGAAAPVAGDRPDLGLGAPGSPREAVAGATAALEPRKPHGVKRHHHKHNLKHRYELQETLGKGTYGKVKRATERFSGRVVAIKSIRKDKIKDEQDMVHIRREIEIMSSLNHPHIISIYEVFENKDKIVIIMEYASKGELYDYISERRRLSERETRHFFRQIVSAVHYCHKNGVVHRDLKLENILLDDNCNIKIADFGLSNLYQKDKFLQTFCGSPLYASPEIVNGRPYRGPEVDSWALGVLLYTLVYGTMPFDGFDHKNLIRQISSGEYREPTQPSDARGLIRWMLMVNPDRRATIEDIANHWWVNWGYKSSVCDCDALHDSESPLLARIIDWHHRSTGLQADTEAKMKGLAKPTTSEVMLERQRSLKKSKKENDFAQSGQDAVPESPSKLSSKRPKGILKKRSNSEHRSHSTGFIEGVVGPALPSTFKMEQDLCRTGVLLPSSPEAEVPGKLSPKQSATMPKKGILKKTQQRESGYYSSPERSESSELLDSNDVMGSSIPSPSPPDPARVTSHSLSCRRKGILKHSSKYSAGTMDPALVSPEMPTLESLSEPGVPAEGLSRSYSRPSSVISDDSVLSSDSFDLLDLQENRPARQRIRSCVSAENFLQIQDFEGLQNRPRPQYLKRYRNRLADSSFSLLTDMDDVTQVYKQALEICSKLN

[5] = target: T3, Serine/threonine-protein kinase NLK (Homo sapiens) (UniProt Q9UBE8); assay: Selectivity interaction (Kinase panel (Invitrogen)) EUB0000639a NLK; conditions: at 200 nM
T3 sequence (whole entry): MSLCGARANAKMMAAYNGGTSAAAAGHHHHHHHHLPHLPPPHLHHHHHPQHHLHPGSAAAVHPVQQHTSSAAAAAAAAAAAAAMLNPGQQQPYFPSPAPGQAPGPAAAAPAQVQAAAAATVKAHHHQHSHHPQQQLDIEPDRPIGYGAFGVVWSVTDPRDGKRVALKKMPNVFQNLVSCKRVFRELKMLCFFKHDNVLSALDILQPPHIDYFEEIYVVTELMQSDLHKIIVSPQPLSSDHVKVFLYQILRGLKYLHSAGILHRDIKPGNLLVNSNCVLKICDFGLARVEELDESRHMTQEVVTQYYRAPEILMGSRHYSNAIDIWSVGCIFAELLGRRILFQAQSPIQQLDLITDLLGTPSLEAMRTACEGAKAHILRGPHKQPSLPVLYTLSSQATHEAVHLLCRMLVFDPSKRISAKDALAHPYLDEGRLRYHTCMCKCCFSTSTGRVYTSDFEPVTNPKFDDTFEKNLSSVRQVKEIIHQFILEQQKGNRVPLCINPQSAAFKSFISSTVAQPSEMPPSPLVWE

[6] = target: Hepatocyte growth factor receptor (Homo sapiens, UniProt P08581); assay: Selectivity interaction (Kinase panel (Invitrogen)) EUB0000639a MET; conditions: at 200 nM
[7] = target: Cyclin-dependent kinase 14 (Homo sapiens) (UniProt O94921); assay: Selectivity interaction (KinomeScan (DiscoverX)) EUB0000695a CDK14; conditions: at 100 nM
[8] = target: Interleukin-1 receptor-associated kinase 1 (Homo sapiens) (UniProt P51617); assay: Selectivity interaction (Ambit KINOMEscan and KiNATiv profiling in Jurkat cells) EUB0000090b IRAK1; format: cell-based; conditions: at 1 µM
[9] = target: Tyrosine-protein kinase Blk (Homo sapiens) (UniProt P51451); assay: Selectivity interaction (Ambit KINOMEscan and KiNATiv profiling in Jurkat cells) EUB0000090b BLK; format: cell-based; conditions: at 1 µM
Chain of Tyrosine-protein kinase Blk (Homo sapiens) (P51451 2-505 limits assumed): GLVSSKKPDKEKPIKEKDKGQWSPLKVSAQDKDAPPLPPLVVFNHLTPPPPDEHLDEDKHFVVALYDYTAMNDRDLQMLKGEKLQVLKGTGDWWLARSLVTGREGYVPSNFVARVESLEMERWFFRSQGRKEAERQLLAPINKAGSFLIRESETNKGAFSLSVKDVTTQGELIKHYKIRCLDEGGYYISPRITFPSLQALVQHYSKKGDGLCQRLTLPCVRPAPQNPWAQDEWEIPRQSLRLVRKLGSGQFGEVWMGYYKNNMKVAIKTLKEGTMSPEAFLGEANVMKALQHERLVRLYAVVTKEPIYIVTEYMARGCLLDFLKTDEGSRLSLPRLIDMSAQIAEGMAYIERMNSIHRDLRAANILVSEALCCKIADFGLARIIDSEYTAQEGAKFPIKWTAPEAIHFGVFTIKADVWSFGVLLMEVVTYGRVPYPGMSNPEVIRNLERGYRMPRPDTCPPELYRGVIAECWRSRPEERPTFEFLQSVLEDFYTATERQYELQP

Chain of Interleukin-1 receptor-associated kinase 1 (Homo sapiens) (P51617 whole entry, looked up): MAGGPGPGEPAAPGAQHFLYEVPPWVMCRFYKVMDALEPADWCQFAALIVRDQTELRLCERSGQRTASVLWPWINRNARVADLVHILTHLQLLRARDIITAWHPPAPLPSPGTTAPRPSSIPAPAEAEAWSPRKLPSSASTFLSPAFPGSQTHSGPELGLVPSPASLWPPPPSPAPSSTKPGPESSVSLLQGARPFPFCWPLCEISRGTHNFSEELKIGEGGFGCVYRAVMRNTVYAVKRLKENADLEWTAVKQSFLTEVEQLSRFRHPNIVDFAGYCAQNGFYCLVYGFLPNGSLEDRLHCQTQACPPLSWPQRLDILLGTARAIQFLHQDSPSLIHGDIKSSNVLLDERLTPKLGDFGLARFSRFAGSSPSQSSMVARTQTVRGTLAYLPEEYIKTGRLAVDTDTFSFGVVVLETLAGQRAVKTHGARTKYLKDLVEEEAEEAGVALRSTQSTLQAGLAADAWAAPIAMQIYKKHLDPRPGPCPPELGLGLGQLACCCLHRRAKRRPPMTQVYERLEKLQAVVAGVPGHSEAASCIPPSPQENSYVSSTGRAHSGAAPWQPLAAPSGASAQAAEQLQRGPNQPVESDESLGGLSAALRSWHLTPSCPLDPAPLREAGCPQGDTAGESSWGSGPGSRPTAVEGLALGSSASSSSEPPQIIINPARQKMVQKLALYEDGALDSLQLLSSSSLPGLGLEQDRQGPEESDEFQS
Chain of Cyclin-dependent kinase 14 (Homo sapiens) (O94921 whole entry): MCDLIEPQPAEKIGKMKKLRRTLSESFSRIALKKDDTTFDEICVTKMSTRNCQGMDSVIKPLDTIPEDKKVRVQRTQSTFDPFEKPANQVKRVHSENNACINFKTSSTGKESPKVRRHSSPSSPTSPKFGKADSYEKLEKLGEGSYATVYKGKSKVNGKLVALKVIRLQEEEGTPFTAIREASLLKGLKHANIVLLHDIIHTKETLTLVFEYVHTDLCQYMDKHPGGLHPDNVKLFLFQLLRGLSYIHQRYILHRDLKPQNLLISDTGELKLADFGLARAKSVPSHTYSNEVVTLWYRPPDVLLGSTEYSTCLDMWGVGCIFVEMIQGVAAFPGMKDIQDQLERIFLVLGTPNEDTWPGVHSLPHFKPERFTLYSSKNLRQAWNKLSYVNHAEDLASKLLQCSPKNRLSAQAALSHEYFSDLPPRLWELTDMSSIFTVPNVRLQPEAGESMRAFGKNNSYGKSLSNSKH
Chain of Protein kinase C delta type (Homo sapiens) (Q05655 whole entry, looked up): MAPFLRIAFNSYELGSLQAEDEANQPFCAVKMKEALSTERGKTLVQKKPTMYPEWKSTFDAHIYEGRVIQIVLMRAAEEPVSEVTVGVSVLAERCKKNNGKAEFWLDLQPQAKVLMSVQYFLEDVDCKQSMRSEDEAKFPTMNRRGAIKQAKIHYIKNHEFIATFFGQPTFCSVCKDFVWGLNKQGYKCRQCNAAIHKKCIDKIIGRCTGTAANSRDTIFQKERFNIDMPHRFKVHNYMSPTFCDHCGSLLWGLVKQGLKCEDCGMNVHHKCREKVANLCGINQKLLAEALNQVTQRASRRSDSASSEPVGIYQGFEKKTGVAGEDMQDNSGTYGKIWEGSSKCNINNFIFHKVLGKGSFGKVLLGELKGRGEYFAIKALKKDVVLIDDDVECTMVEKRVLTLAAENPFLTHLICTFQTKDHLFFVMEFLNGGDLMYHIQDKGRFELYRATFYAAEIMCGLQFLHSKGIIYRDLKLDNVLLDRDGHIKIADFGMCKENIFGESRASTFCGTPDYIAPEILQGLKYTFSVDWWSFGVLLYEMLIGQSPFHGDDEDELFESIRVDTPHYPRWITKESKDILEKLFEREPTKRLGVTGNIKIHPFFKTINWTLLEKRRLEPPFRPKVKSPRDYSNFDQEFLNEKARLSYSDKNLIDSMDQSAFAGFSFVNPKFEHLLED
Chain of Hepatocyte growth factor receptor (P08581 whole entry): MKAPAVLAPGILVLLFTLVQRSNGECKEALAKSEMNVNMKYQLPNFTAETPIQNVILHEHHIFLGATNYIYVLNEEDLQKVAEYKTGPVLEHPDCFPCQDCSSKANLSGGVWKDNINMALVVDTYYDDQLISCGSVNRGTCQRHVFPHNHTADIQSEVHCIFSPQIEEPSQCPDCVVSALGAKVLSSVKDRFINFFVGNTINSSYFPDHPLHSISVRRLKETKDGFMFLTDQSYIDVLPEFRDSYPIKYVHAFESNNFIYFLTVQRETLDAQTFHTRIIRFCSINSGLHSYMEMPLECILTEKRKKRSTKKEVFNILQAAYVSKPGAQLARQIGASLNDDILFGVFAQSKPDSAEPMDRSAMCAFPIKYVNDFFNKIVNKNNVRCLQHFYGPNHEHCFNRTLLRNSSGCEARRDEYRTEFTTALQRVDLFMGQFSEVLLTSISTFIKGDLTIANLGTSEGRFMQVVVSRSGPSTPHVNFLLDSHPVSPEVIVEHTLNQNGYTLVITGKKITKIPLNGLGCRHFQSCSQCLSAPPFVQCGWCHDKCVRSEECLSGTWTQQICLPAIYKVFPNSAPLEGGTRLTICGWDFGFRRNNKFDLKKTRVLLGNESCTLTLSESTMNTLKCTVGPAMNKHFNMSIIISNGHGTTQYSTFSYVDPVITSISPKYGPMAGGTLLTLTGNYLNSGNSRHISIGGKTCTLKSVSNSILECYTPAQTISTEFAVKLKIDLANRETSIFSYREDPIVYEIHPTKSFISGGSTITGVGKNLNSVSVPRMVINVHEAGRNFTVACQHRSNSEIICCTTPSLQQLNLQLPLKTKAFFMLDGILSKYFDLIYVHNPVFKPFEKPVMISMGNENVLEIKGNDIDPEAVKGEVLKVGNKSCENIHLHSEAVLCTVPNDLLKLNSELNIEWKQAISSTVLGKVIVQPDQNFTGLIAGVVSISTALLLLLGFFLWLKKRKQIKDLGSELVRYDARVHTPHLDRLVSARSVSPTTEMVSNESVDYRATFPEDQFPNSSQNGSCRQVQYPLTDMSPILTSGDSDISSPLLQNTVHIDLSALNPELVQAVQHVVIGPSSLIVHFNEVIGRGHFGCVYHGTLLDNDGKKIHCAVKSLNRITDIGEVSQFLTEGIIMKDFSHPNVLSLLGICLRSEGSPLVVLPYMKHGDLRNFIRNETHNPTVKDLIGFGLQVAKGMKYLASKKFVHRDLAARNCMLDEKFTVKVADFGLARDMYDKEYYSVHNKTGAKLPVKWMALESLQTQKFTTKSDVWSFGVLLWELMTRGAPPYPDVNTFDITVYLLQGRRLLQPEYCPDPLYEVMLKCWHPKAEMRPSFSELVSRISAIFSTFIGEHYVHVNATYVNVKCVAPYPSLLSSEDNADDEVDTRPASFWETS
Chain of STE20-like serine/threonine-protein kinase (Q9H2G2 whole entry, looked up): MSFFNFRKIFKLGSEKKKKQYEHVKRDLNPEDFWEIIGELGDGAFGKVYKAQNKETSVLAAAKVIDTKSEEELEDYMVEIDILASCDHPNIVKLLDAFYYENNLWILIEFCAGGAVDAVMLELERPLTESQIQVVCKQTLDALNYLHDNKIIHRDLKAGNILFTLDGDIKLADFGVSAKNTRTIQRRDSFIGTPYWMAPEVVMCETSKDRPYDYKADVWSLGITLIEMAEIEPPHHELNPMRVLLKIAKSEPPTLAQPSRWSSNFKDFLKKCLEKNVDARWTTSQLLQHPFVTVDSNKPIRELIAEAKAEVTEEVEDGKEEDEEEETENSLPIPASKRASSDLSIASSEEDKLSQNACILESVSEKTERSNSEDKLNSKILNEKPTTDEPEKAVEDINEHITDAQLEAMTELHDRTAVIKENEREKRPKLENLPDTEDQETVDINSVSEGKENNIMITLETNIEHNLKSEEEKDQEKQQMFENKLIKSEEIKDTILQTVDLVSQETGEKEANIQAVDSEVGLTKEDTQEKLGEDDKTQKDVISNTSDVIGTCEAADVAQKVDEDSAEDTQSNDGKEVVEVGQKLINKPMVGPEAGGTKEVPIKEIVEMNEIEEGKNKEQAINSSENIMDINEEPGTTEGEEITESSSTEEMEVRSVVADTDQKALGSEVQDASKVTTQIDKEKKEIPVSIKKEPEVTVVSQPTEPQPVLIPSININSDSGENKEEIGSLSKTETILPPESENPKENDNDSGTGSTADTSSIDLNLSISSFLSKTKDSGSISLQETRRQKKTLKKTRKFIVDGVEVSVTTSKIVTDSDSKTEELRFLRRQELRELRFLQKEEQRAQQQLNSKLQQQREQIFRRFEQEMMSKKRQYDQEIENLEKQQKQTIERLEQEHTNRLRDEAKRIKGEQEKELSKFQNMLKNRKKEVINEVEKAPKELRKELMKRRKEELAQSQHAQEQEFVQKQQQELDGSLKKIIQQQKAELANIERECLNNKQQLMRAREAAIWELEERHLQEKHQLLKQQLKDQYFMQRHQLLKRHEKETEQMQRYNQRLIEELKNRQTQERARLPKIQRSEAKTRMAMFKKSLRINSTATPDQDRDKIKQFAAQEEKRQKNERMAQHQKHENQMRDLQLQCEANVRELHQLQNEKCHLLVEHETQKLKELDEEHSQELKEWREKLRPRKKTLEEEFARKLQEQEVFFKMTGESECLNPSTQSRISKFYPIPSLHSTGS

**Q.** Which % of control [1] does the source give for CCN(CC)CCCCNc1ncc2cc(-c3cc(OC)cc(OC)c3)c(NC(=O)NC(C)(C)C)nc2n1 here?
**A.** 100%

**Q.** CCC(=O)N1CCN(c2ccc(-n3c(=O)ccc4cnc5ccc(-c6cnc7ccccc7c6)cc5c43)cc2C(F)(F)F)CC1 was tested. Which % of control [2] did it give?
**A.** 68%

**Q.** With Nc1cnc(N2CCc3cc(S(=O)(=O)Nc4c(F)cc(Cl)cc4F)cc(N4CCCC4=O)c32)nc1 [TP-020n] as the compound, how does the % of control [3] read?
**A.** 86%

**Q.** Which % of control [4] does the source give for O=C(NOC[C@H](O)CO)c1ccc(F)c(F)c1Nc1ccc(I)cc1F here?
**A.** 81%

**Q.** For CC[C@@H]1[C@H](F)C(=O)N[C@@H]1COc1nccc2cc(C(N)=O)c(OC)cc12 [ZIMLOVISERTIB], which % of inhibition [5] is on record?
**A.** 10.2%

**Q.** And the % of inhibition [6]?
**A.** 2.16%

**Q.** Cc1cc(F)c(C(=O)Nc2cccc(-c3nncn3C(C)C)n2)cc1-n1cnc(C2CC2)c1 was tested. Which % of control [7] did it give?
**A.** 49%

**Q.** With CN(C)C/C=C/C(=O)Nc1ccc(C(=O)N2CCCC(Nc3ncc(Cl)c(-c4c[nH]c5ccccc45)n3)C2)cc1 (centres undefined) as the compound, how does the % of control [8] read?
**A.** 97%

**Q.** What about the % of control [9] of the same compound?
**A.** 84%
